In patent US12239661B2, “Methods and compositions for treating undesired implanted tissue filler” (priority 2019, dated 2025):
“And” between values parts separate entries of the source, which are not always exact repeats. Equal entries are not always repeated. Marks after values point to notes of the source that are not given here.

Test: X-ray CT of volume, mean density and 3D shape of Radiesse nodules and injected hyperosmotic solutions (Example 4)
Assay type: in vivo, Pig (Sus scrofa domesticus)
Settings: for Change in Volume as percent of Injected Volume, Day 14/15: Example 4 (Day 15); for Change in Volume as percent of Injected Volume, Day 14/15 / Change in Volume as percent of Injected Volume, Day 0 + 1 h 15 / Change in Volume as percent of Injected Volume, Day 0 + 2 h / Change in Volume as percent of Injected Volume, Day 0 + 4 h / Change in Volume as percent of Injected Volume, Day 1 / Change in Volume as percent of Injected Volume, Day 3 / Change in Volume as percent of Injected Volume, Day 7: mean; for Change in Volume as percent of Injected Volume, Day 0 + 1 h 15 / Change in Volume as percent of Injected Volume, Day 0 + 2 h / Change in Volume as percent of Injected Volume, Day 0 + 4 h / Change in Volume as percent of Injected Volume, Day 1 / Change in Volume as percent of Injected Volume, Day 3 / Change in Volume as percent of Injected Volume, Day 7: Example 4
Experimental: Pigs are injected by SC route with Radiesse® filler without Lidocaine (Test item). One hour after the Radiesse® filler injection, selected different hyperosmotic solutions are injected by SC route into the dermal filler nodules. For two Radiesse® filler nodules per pig, no additional product is injected; these nodules are used as controls.
The evolution over time of the volume and mean density of the Radiesse® filler nodules with injection of the different solutions are assessed by CT-scanner at selected time points: on Day 0, at about 1 hour (h) and 15 minutes (min), 2 h and 4 h after the Radiesse® filler injection and solution injection, and then, on Day 1 (about 24 h after Radiesse® filler injection), Day 3, Day 7 and Day 15.
On Day 0, 4 pigs received ten (10) SC injections of Radiesse® dermal filler (P20WK-EE-01) of about 500 μl/nodule in the flank (ventral area) at T=0. One hour after Radiesse® dermal filler injections (T=1 h), about 1.5 ml of different hyperosmotic solutions (P20WK-EE-02 to P20WK-EE-05) were each injected into 8 Radiesse® filler nodules. Two Radiesse® filler nodules per animal were not injected with hyperosmotic solution and served as controls.
A total of 7 CT-scans were performed at 1 h 15±10 min, 2 h±15 min, 4 h±20 min, 1 day (24 h±1 h), 3, 7 and 15 days after injection of the dermal filler, as described in FIG. 9A.
On Day 0 (TO), 10 SC injections of test item P20WK-EE-01 (Radiesse® dermal filler) were performed in the ventral area (five nodules on each flank of the ventral area). For each SC nodule, a theoretical volume of 500 μL was administered. One hour (±5 min) after injection of dermal filler, SC injections of the different solutions (prepared on Day −3) were performed into 8 nodules of dermal filler. For each injection of solution, a theoretical volume of 1.5 mL was administered (see, e.g., injection scheme in Table 11).
In order to measure the volume, the mean density and to visualize the 3D shape of the dermal filler SC injected (in presence or absence of different hyperosmotic solutions), in vivo CT-scans were performed on Day 0: 1 h 15 (±10 min), 2 h (±15 min) and 4 h (±20 min), on Day 1 (24 h±1 h), Day 3, Day 7 and Day 15.
The CT acquisitions are analyzed with the software Avizo version 9.2.0. The objective of this analysis was to assess the dispersion over time of the Radiesse® dermal filler injected by SC route after injection of different hyperosmotic solutions.
To achieve this goal, the evolution of these parameters is observed over time: • the volume of each nodule (Radiesse® dermal filler and solution separately), • the mean density of each nodule (Radiesse® dermal filler and solution separately), • the 3D shape of each nodule by visualization of the 3D model of each nodule at each time point (Radiesse® dermal filler with or without solution separately). Segmentation:
An image segmentation is performed on each CT acquisition on the […] reconstruction. At first, a manual pre-segmentation is performed around each nodule in order to roughly isolate the voxels corresponding to Radiesse® dermal filler and hyperosmotic solutions and defined a Region of Interest (ROI). Secondly, an automatic segmentation is applied on the ROI previously defined using a global grey level thresholding procedure. […] Similarly, all the voxels having a grey level between these HU values are selected in a ROI and corresponds to the pure solution or solution containing some dispersed Radiesse® dermal filler (see, FIG. 10).
Then, a 3D model of these selected voxels (see, FIG. 11) is obtained allowing the calculation of the total volume (in mm^3) and the mean density (in HU) of the two defined compartments of each nodule of Pure Radiesse® dermal filler and of each solution containing or not containing dispersed Radiesse® dermal filler.
The volume (in mm^3) of the ROI of Radiesse® dermal filler and the solutions corresponding to each nodule and the mean density (in HU) of each nodule are calculated at each time point.

[1] = individual nodules, [+250, +∞] HU, listed as Radiesse + Fructose
[2] = mean of 8 nodules, [+250, +∞] HU

| SMILES | Change in Volume as percent of Injected Volume, Day 14/15 | Change in Volume as percent of Injected Volume, Day 0 + 1 h 15 | Change in Volume as percent of Injected Volume, Day 0 + 2 h | Change in Volume as percent of Injected Volume, Day 0 + 4 h | Change in Volume as percent of Injected Volume, Day 1 | Change in Volume as percent of Injected Volume, Day 3 | Change in Volume as percent of Injected Volume, Day 7 | average of the mean density of solution nodules, T=1 h 15 (between −100 HU and 250 HU) | mean volume of solution with potential dispersed Radiesse, Day 15 (between −100 HU and 250 HU) | variation of solution volume on Day 15 compared to the injected volume on T=1 h (between −100 HU and 250 HU) | average of the mean density of nodules, Day 15 (pure Radiesse >250 HU) | also measured |
| --- | --- | --- | --- | --- | --- | --- | --- | --- | --- | --- | --- | --- |
| O=C(CO)[C@@H](O)[C@H](O)[C@H](O)CO [sol 11, Fructose] | 1930% | 1581* percent | 1610% | 1871% | 2285% | 1959% | 2002% | 58.6±6.2 HU | 883.9±269.9 mm^3 | −42.8% | 512.9±57.4 HU | average of the mean density of solution nodules, T=4 h (between −100 HU and 250 HU): −1.0±7.7 HU; mean volume of solution with potential dispersed Radiesse, T+4 h (between −100 HU and 250 HU): 7000.8±1389.9 mm^3; variation of the average of the mean density of solutions, Day 15 compared to T=1 h 15 (between −100 HU and 250 HU): 34.7%; Nodule volume, Day 0 + 1 h 15 [1]: 799.1 mm^3 and 845.1 mm^3 and 739.4 mm^3 and 852.5 mm^3 and 760.4 mm^3 and 837.5 mm^3 and 793.0 mm^3 and 710.6 mm^3; Nodule volume, Day 0 + 2 h [1]: 795.9 mm^3 and 856.3 mm^3 and 750.5 mm^3 and 863.0 mm^3 and 770.1 mm^3 and 898.7 mm^3 and 808.3 mm^3 and 712.1 mm^3; Nodule volume, Day 0 + 4 h [1]: 1039.3 mm^3 and 957.8 mm^3 and 861.1 mm^3 and 985.4 mm^3 and 902.9 mm^3 and 1039.4 mm^3 and 912.1 mm^3 and 796.2 mm^3; Nodule volume, Day 1 [1]: 1168.5 mm^3 and 1120.2 mm^3 and 1122.3 mm^3 and 1226.3 mm^3 and 1085.5 mm^3 and 1165.0 mm^3 and 1153.8 mm^3 and 1115.5 mm^3; Nodule volume, Day 3 [1]: 1043.6 mm^3 and 1039.7 mm^3 and 961.0 mm^3 and 1053.3 mm^3 and 969.6 mm^3 and 992.2 mm^3 and 891.2 mm^3 and 897.7 mm^3; Nodule volume, Day 7 [1]: 1041.9 mm^3 and 1040.7 mm^3 and 1239.0 mm^3 and 1200.9 mm^3 and 879.3 mm^3 and 953.1 mm^3 and 833.5 mm^3 and 838.3 mm^3; Nodule volume, Day 15 [1]: 997.7 mm^3 (2×) and 997.2 mm^3 and 944.9 mm^3 and 1054.8 mm^3 and 923.5 mm^3 and 912.9 mm^3 and 905.4 mm^3; Mean nodule volume, Day 0 + 1 h 15 [2]: 792.2 mm^3; Mean nodule volume, Day 0 + 2 h [2]: 806.9 mm^3; Mean nodule volume, Day 0 + 4 h [2]: 936.8 mm^3; Mean nodule volume, Day 1 [2]: 1144.6 mm^3; Mean nodule volume, Day 3 [2]: 981.0 mm^3; Mean nodule volume, Day 7 [2]: 1003.3 mm^3; Mean nodule volume, Day 15 [2]: 966.8±52.9 mm^3; Mean nodule volume, Day 15 (mean of 8 nodules, [+250, +∞] HU, listed as Radiesse + Fructose): 966.8 mm^3; average of the mean density of nodules, Day 1 (pure Radiesse >250 HU): 424.6±31.6 HU; average of the mean density of nodules, Day 3 (pure Radiesse >250 HU): 505.0±72.2 HU |
| O=C([O-])O.[Na+] [sol 14, Sodium hydrogen carbonate (sodium bicarbonate)] | 1977% | 1529* percent | 1561% | 1799% | 2214% | 2014% | 2345% | 25.7±5.5 HU | 1352.3±570.6 mm^3 | −1.4% | 441.3±62.9 HU | average of the mean density of solution nodules, T=2 h (between −100 HU and 250 HU): 14.1±7.1 HU; mean volume of solution with potential dispersed Radiesse, T=2 h (between −100 HU and 250 HU): 2577.4±54.0 mm^3 |
